In US9802901B2, “Antibacterial 2H-indazole derivatives” (priority 2013, dated 2017):
Converted amounts (≈) assume the structure as drawn.

Experiments:
Test in all cases: Bacterial growth minimal inhibitory concentration (broth microdilution, CLSI M7-A7)
[1] = tested on: P. aeruginosa ATCC27853; type: cell-based, Pseudomonas aeruginosa; details: cation-adjusted Mueller-Hinton Broth, microdilution, quinolone-sensitive strain; for MIC: Pseudomonas aeruginosa, ATCC27853, read-out: MIC for P. aeruginosa ATCC27853
Experimental: (§1) Minimal Inhibitory Concentrations (MICs; mg/L) were determined in cation-adjusted Mueller-Hinton Broth by a microdilution method following the description given in “Methods for Dilution Antimicrobial Susceptibility Tests for Bacteria that Grow Aerobically”, Approved standard, 7th ed., Clinical and Laboratory Standards Institute (CLSI) Document M7-A7, Wayne, Pa., USA (2006).
(§2) All Example compounds, except the compound of Example 62, were tested against several Gram-positive and Gram-negative bacteria. […] K. pneumoniae A-651 and Acinetobacter baumannii T6474 are multiply-resistant strains (in particular quinolone-resistant), while E. coli ATCC25922 and P. aeruginosa ATCC27853 are quinolone-sensitive strains.

[2] = tested on: K. pneumoniae A-651; type: cell-based, Klebsiella pneumoniae; details: cation-adjusted Mueller-Hinton Broth, microdilution, multiply-resistant (quinolone-resistant) strain; for MIC: Klebsiella pneumoniae, A651, read-out: MIC for K. Pneumoniae A-651
Experimental: as §1, §2

[3] = tested on: Acinetobacter baumannii T6474; type: cell-based; details: cation-adjusted Mueller-Hinton Broth, microdilution, multiply-resistant (quinolone-resistant) strain; for MIC: Acinetobacter baumannii, T6474, read-out: MIC for A. Baumannii T6474
Experimental: as §1, §2

[4] = tested on: E. coli ATCC25922; type: cell-based, Escherichia coli; details: cation-adjusted Mueller-Hinton Broth, microdilution, quinolone-sensitive strain; for MIC: Escherichia coli, ATCC25922, read-out: MIC for E. coli ATCC25922
Experimental: as §1, §2

CC(C)(O)c1ccc(C#Cc2ccc3nn(CC[C@](C)(C(=O)NO)S(C)(=O)=O)cc3c2)cc1 [Example 27, (R)—N-hydroxy-4-(5-((4-(2-hydroxypropan-2-yl)phenyl)ethynyl)-2H-indazol-2-yl)-2-methyl-2-(methylsulfonyl)butanamide]
MIC [1]: 0.5 µg/mL (≈ 1.06 µM)
MIC [2]: 0.125 µg/mL (≈ 0.266 µM)
MIC [3]: 0.25 µg/mL (≈ 0.532 µM)
MIC [4]: 0.063 µg/mL (≈ 0.134 µM)

COCCOc1ccc(-c2ccc3nn(CC[C@](C)(C(=O)NO)S(C)(=O)=O)cc3c2)cc1 [Example 52, (R)—N-hydroxy-4-(5-(4-(2-methoxyethoxy)phenyl)-2H-indazol-2-yl)-2-methyl-2-(methylsulfonyl)butanamide]
MIC [1]: 2 µg/mL (≈ 4.33 µM)
MIC [2]: 0.5 µg/mL (≈ 1.08 µM)
MIC [3]: 1 µg/mL (≈ 2.17 µM)
MIC [4]: 0.125 µg/mL (≈ 0.271 µM)

CC#CCOc1ccc2nn(CCC(C)(C(=O)NO)S(C)(=O)=O)cc2c1 (racemic) [RE4, (RS)-4-(5-but-2-ynyloxy-indazol-2-yl)-N-hydroxy-2-methylsulfonyl-2-methyl-butanamide]
MIC [1]: 8 µg/mL (≈ 21.1 µM)
MIC [2]: 8 µg/mL (≈ 21.1 µM)
MIC [3]: 32 µg/mL (≈ 84.3 µM)
MIC [4]: 4 µg/mL (≈ 10.5 µM)

C[C@@](CCn1cc2cc(C#Cc3ccc(CN4CCOCC4)cc3)ccc2n1)(C(=O)NO)S(C)(=O)=O.O=CO [Example 7, (R)—N-hydroxy-2-methylsulfonyl-2-methyl-4-[5-(4-morpholin-4-ylmethyl-phenylethynyl)-indazol-2-yl]-butanamide formate]
MIC [1]: 2 µg/mL
MIC [2]: 0.125 µg/mL
MIC [3]: 0.5 µg/mL
MIC [4]: 0.25 µg/mL

C[C@@](CCn1cc2c(F)c(C#Cc3ccc(CO)cc3)ccc2n1)(C(=O)NO)S(C)(=O)=O.O=C(O)C(F)(F)F [Example 23, (R)-4-[4-fluoro-5-(4-hydroxymethyl-phenylethynyl)-indazol-2-yl]-N-hydroxy-2-methylsulfonyl-2-methyl-butanamide trifluoro-acetic acid salt]
MIC [1]: 4 µg/mL
MIC [2]: 0.25 µg/mL
MIC [3]: 1 µg/mL
MIC [4]: 0.25 µg/mL

C[C@@](CCn1cc2cc(C#CC#CC3CN(C(=O)CN)C3)ccc2n1)(C(=O)NO)S(C)(=O)=O [Example 84, (R)-4-(5-((1-glycylazetidin-3-yl)buta-1,3-diyn-1-yl)-2H-indazol-2-yl)-N-hydroxy-2-methyl-2-(methylsulfonyl)butanamide]
MIC [1]: 0.5 µg/mL (≈ 1.06 µM)
MIC [2]: 4 µg/mL (≈ 8.48 µM)
MIC [3]: > 32 µg/mL
MIC [4]: 1 µg/mL (≈ 2.12 µM)

C[C@@](CCn1cc2cc(-c3ccc(NC(=O)CO)cc3)ccc2n1)(C(=O)NO)S(C)(=O)=O [Example 49, (R)—N-hydroxy-4-(5-(4-(2-hydroxyacetamido)phenyl)-2H-indazol-2-yl)-2-methyl-2-(methylsulfonyl)butanamide]
MIC [1]: 4 µg/mL (≈ 8.69 µM)
MIC [2]: 4 µg/mL (≈ 8.69 µM)
MIC [3]: > 32 µg/mL
MIC [4]: 4 µg/mL (≈ 8.69 µM)

C[C@@](CCn1cc2cc(C#CC#C[C@@H]3C[C@H]3[C@H](O)CO)ccc2n1)(C(=O)NO)S(C)(=O)=O [Example 71, (R)-4-(5-(((1R,2R)-2-((S)-1,2-dihydroxyethyl)cyclopropyl)buta-1,3-diyn-1-yl)-2H-indazol-2-yl)-N-hydroxy-2-methyl-2-(methylsulfonyl)butanamide]
MIC [1]: 0.25 µg/mL (≈ 0.544 µM)
MIC [2]: 0.5 µg/mL (≈ 1.09 µM)
MIC [3]: 8 µg/mL (≈ 17.4 µM)
MIC [4]: 0.25 µg/mL (≈ 0.544 µM)

COc1ccc(-c2ccc3nn(CC[C@](C)(C(=O)NO)S(C)(=O)=O)cc3c2F)c(F)c1 [Example 6, (R)-4-[4-fluoro-5-(2-fluoro-4-methoxy-phenyl)-indazol-2-yl]-N-hydroxy-2-methylsulfonyl-2-methyl-butanamide]
MIC [1]: 4 µg/mL (≈ 8.82 µM)
MIC [2]: 0.5 µg/mL (≈ 1.1 µM)
MIC [3]: 2 µg/mL (≈ 4.41 µM)
MIC [4]: 0.125 µg/mL (≈ 0.276 µM)

C[C@@](CCn1cc2cc(C#CC#C[C@@H]3CC[C@H](N)CO3)ccc2n1)(C(=O)NO)S(C)(=O)=O (relative stereo) [Example 61, (R)-4-(5-(((2S*,5S*)-5-aminotetrahydro-2H-pyran-2-yl)buta-1,3-diyn-1-yl)-2H-indazol-2-yl)-N-hydroxy-2-methyl-2-(methylsulfonyl)butanamide]
MIC [1]: 1 µg/mL (≈ 2.18 µM)
MIC [2]: 4 µg/mL (≈ 8.72 µM)
MIC [3]: > 8 µg/mL
MIC [4]: 2 µg/mL (≈ 4.36 µM)

C[C@@](CCn1cc2cc(C#CC#CCC3(O)CC(CO)C3)ccc2n1)(C(=O)NO)S(C)(=O)=O (stereo partly shown) [Example 66]
MIC for P. aeruginosa ATCC27853 [1]: 2 µg/mL
MIC for K. Pneumoniae A-651 [2]: 4 µg/mL
MIC for A. Baumannii T6474 [3]: >32 µg/mL
MIC for E. coli ATCC25922 [4]: 1 µg/mL

C[C@@](CCn1cc2cc(C#CC#C[C@H]3C[C@@H]3CO)c(F)cc2n1)(C(=O)NO)S(C)(=O)=O [Example 53, (R)-4-(6-fluoro-5-(((1S,2S)-2-(hydroxymethyl)cyclopropyl)buta-1,3-diyn-1-yl)-2H-indazol-2-yl)-N-hydroxy-2-methyl-2-(methylsulfonyl)butanamide]
MIC [1]: 0.5 µg/mL (≈ 1.12 µM)
MIC [2]: 0.125 µg/mL (≈ 0.279 µM)
MIC [3]: 2 µg/mL (≈ 4.47 µM)
MIC [4]: ≤ 0.063 µg/mL

COc1ccc(-c2cc3cn(CC[C@](C)(C(=O)NO)S(C)(=O)=O)nc3cc2F)cc1 [Example 3, (R)-4-[6-fluoro-5-(4-methoxy-phenyl)-indazol-2-yl]-N-hydroxy-2-methylsulfonyl-2-methyl-butanamide]
MIC [1]: 2 µg/mL (≈ 4.59 µM)
MIC [2]: 0.125 µg/mL (≈ 0.287 µM)
MIC [3]: 0.5 µg/mL (≈ 1.15 µM)
MIC [4]: 0.063 µg/mL (≈ 0.145 µM)

C[C@@](CCn1cc2cc(C#Cc3ccc(CO)cc3)ccc2n1)(C(=O)NO)S(C)(=O)=O [Example 21, (R)—N-hydroxy-4-(5-((4-(hydroxymethyl)phenyl)ethynyl)-2H-indazol-2-yl)-2-methyl-2-(methylsulfonyl)butanamide]
MIC [1]: 1 µg/mL (≈ 2.26 µM)
MIC [2]: 0.25 µg/mL (≈ 0.566 µM)
MIC [3]: 0.5 µg/mL (≈ 1.13 µM)
MIC [4]: 0.125 µg/mL (≈ 0.283 µM)

CC(C)(O)C#CC#Cc1ccc2nn(CC[C@](C)(C(=O)NO)S(C)(=O)=O)cc2c1 [Example 32, (R)—N-hydroxy-4-[5-(5-hydroxy-5-methyl-hexa-1,3-diynyl)-indazol-2-yl]-2-methylsulfonyl-2-methyl-butanamide]
MIC [1]: 1 µg/mL (≈ 2.4 µM)
MIC [2]: 0.5 µg/mL (≈ 1.2 µM)
MIC [3]: 32 µg/mL (≈ 76.6 µM)
MIC [4]: 0.5 µg/mL (≈ 1.2 µM)

C[C@@](CCn1cc2cc(C#CC#CC3CCC(NC(=O)CN)C3)ccc2n1)(C(=O)NO)S(C)(=O)=O (stereo partly drawn) [Example 70, (R)-4-(5-((3-(2-aminoacetamido)cyclopentyl)buta-1,3-diyn-1-yl)-2H-indazol-2-yl)-N-hydroxy-2-methyl-2-(methylsulfonyl)butanamide]
MIC [1]: 2 µg/mL (≈ 4 µM)
MIC [2]: 1 µg/mL (≈ 2 µM)
MIC [3]: > 32 µg/mL
MIC [4]: 1 µg/mL (≈ 2 µM)

CC(C)(O)c1ccc(C#Cc2ccc3nn(CC[C@](C)(C(=O)NO)S(C)(=O)=O)cc3c2F)cc1 [Example 14, (R)-4-(4-fluoro-5-((4-(2-hydroxypropan-2-yl)phenyl)ethynyl)-2H-indazol-2-yl)-N-hydroxy-2-methyl-2-(methylsulfonyl)butanamide]
MIC [1]: 2 µg/mL (≈ 4.1 µM)
MIC [2]: 0.25 µg/mL (≈ 0.513 µM)
MIC [3]: 16 µg/mL (≈ 32.8 µM)
MIC [4]: 0.25 µg/mL (≈ 0.513 µM)

COc1ccc(-c2cc3cn(CC[C@](C)(C(=O)NO)S(C)(=O)=O)nc3cc2F)c(F)c1 [Example 5, (R)-4-[6-fluoro-5-(2-fluoro-4-methoxy-phenyl)-indazol-2-yl]-N-hydroxy-2-methylsulfonyl-2-methyl-butanamide]
MIC [1]: 4 µg/mL (≈ 8.82 µM)
MIC [2]: 0.063 µg/mL (≈ 0.139 µM)
MIC [3]: 2 µg/mL (≈ 4.41 µM)
MIC [4]: 0.063 µg/mL (≈ 0.139 µM)

C[C@@](CCn1cc2c(F)c(C#CC#C[C@H]3C[C@@H]3CO)ccc2n1)(C(=O)NO)S(C)(=O)=O (relative stereo) [Example 18, (R)-4-{4-fluoro-5-[4-((1S*,2S*)-2-hydroxymethyl-cyclopropyl)-buta-1,3-diynyl]-indazol-2-yl}-N-hydroxy-2-methylsulfonyl-2-methyl-butanamide]
MIC [1]: 0.5 µg/mL (≈ 1.12 µM)
MIC [2]: 0.125 µg/mL (≈ 0.279 µM)
MIC [3]: 4 µg/mL (≈ 8.94 µM)
MIC [4]: 0.125 µg/mL (≈ 0.279 µM)
